From US4871722A, “Synergistic veterinary composition and/or fodder premix and process for preparing same” (priority 1987, dated 1989)
Like-named read-outs stand apart in the source and are kept apart here.

Assays:
Staphylococcus aureus = experiment: MIC by broth-dilution method (bactericidal effect), strain A; type: cell-based; details: read-out: MIC value
Experimental: (§1) The minimum inhibiting concentration (MIC) values of the above compounds and their two- or three-component combinations were determined in phenol-red - glucose broth (product of the Difco Co.) by using the broth-dilution method on the following bacterium strains isolated from chickens: […]

Escherichia coli 1 = experiment: MIC by broth-dilution method (bactericidal effect), strain B; type: cell-based
Experimental: as §1

Escherichia coli 2 = experiment: MIC by broth-dilution method (bactericidal effect), strain C; type: cell-based
Experimental: as §1

Salmonella typhimurium = experiment: MIC by broth-dilution method (bactericidal effect), strain D; type: cell-based; details: Salmonella enterica, read-out: MIC value
Experimental: (§2) The minimum inhibiting concentration (MIC) values of the above compounds and their two- or three-component combinations were determined in phenol-red - glucose broth (product of the Difco Co.) by using the broth-dilution method on the following bacterium strains isolated from chickens:
(§3) D: Salmonella typhimurium

Pasteurella multocida = experiment: MIC by broth-dilution method (bactericidal effect), strain E; type: cell-based; details: read-out: MIC value
Experimental: as §1

Aspergillus fumigatus = experiment: MIC by broth-dilution method (bactericidal effect), strain F; type: cell-based; details: read-out: MIC value
Experimental: as §1

[1] = system: bacterium strains isolated from chickens; experiment: in vitro bacterial growth inhibition over the bacterium strains tested; type: cell-based; details: single compound
Experimental: as §2, §3

[2] = in vivo
[3] = in vivo; cited from earlier work
[4] = Escherichia coli, 1, read-out: MIC value
[5] = Escherichia coli, 2, read-out: MIC value
[6] = strain A: Staphylococcus aureus, phenol-red - glucose broth, bactericidal effect
[7] = strain B: Escherichia coli 1, phenol-red - glucose broth, bactericidal effect, read-out: MIC value
[8] = strain C: Escherichia coli 2, phenol-red - glucose broth, bactericidal effect, read-out: MIC value
[9] = strain D: Salmonella typhimurium, phenol-red - glucose broth, bactericidal effect
[10] = strain E: Pasteurella multocida, phenol-red - glucose broth, bactericidal effect
[11] = strain F: Aspergillus fumigatus, phenol-red - glucose broth, bactericidal effect

| SMILES | MIC (Staphylococcus aureus; Staphylococcus aureus) | MIC (Escherichia coli 1; [4]) | MIC (Escherichia coli 2; [5]) | MIC (Salmonella typhimurium; TYPHIMURIUM) | MIC (Pasteurella multocida; Pasteurella multocida) | MIC (Aspergillus fumigatus; Aspergillus fumigatus) | dose necessary for the in vitro antibacterial effect [1] | MIC (Staphylococcus aureus; [6]) | MIC (Escherichia coli 1; [7]) | MIC (Escherichia coli 2; [8]) | MIC (Salmonella typhimurium; [9]) | MIC (Pasteurella multocida; [10]) | MIC (Aspergillus fumigatus; [11]) | toxicity; damage of haemopoietic organs and vessel walls [3] | also measured |
| --- | --- | --- | --- | --- | --- | --- | --- | --- | --- | --- | --- | --- | --- | --- | --- |
| O=S(=O)(O)O.Oc1cccc2cccnc12 [8-Hydroxyquinoline sulfate, 8-hydroxyquinoline sulfate] | 5 µg/mL | 25 µg/mL | 25 µg/mL | 50 µg/mL | 1 µg/mL | 25 µg/mL | – | – | – | – | – | – | – | – | – |
| Oc1cccc2cccnc12 [8-hydroxyquinoline] | – | – | – | – | – | – | a relatively low dose | – | – | – | – | – | – | – | required therapeutic blood level in the blood plasma [2]: cannot develop in the blood plasma |
| COc1ccc(Cc2cnc(N)nc2N)cc1OC [Diaveridine, 2,4-diamino-5-(3,4-dimethoxybenzyl)pyrimidine] | 200 µg/mL | 200 µg/mL | 150 µg/mL | 200 µg/mL | 150 µg/mL | 200 µg/mL | a very high dose | – | – | – | – | – | – | – | – |
| COc1cc(NS(=O)(=O)c2ccc(N)cc2)nc(OC)n1 [Sulfadimethoxine, 2,6-dimethoxy-4-sulfanilamidopyrimidine] | – | – | – | – | – | – | – | 200 µg/mL | 200 µg/mL | 200 µg/mL | 200 µg/mL | 200 µg/mL | 200 µg/mL | no damages of the haemopoietic organs and vessel walls | toxicity compared with other sulfonamides [3]: one of the least toxic ones |
| COc1cc(Cc2cnc(N)nc2N)cc(OC)c1OC [Trimetoprim, 2,4-diamino-5-(3,4,5-trimethoxybenzyl)pyrimidine] | – | – | – | – | – | – | a very high dose | 200 µg/mL | 200 µg/mL | 200 µg/mL | 200 µg/mL | 100 µg/mL | 200 µg/mL | – | – |
| Nc1ccc(S(=O)(=O)Nc2cnc3ccccc3n2)cc1 [sulfachinoxaline, N-(2-chinoxalinyl)sulfanilamide] | – | – | – | – | – | – | – | – | – | – | – | – | – | the haemopoietic organs and vessel walls of the animals are significantly injured | – |
